Target: Lactoylglutathione lyase (Homo sapiens, UniProt Q04760)
Assay: Binding affinity for Glyoxalase I

Sequence of Lactoylglutathione lyase (Q04760 whole entry): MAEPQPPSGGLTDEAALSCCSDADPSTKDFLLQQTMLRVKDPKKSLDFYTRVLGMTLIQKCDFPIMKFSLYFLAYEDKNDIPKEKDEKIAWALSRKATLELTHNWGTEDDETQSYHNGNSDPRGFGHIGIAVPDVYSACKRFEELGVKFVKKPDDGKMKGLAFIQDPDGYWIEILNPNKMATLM

Compound | Ki
CCCCN(O)C(=O)SC[C@H](NC(=O)CC[C@H](N)C(=O)O)C(=O)NCC(=O)O | 0.18 µM
CCN(O)C(=O)SC[C@H](NC(=O)CC[C@H](N)C(=O)O)C(=O)NCC(=O)O | 1.18 µM
CN(O)C(=O)SC[C@H](NC(=O)CC[C@H](N)C(=O)O)C(=O)NCC(=O)O | 1.7 µM
CCCN(O)C(=O)SC[C@H](NC(=O)CC[C@H](N)C(=O)O)C(=O)NCC(=O)O | 0.8 µM
N[C@@H](CCC(=O)N[C@@H](CSC(=O)NO)C(=O)NCC(=O)O)C(=O)O | 183 µM

Stronger by Ki, values ahead:

Ki | Compound
0.17 µM | CCCCCN(O)C(=O)SC[C@H](NC(=O)CC[C@H](N)C(=O)O)C(=O)NCC(=O)O
0.018 µM | CCCCCCCN(O)C(=O)SC[C@H](NC(=O)CC[C@H](N)C(=O)O)C(=O)NCC(=O)O
0.016 µM | CCCCCCN(O)C(=O)SC[C@H](NC(=O)CC[C@H](N)C(=O)O)C(=O)NCC(=O)O

Reference: ChEMBL document CHEMBL1133474, “Role of hydrophobic interactions in binding S-(N-aryl/alkyl-N-hydroxycarbamoyl)glutathiones to the active site of the antitumor target enzyme glyoxalase I” (J Med Chem, 2000)
